Where “and” joins values, the source holds several entries; their conditions need not be identical. Equal values may be shown once. Marks after values point to notes of the source that are not given here.
Tests used:
[1] = In vitro stability in human serum at 37 °C; assay type: in vitro ADME; conditions: at 24 h
Procedure: Aliquots (0.2 mL) were withdrawn at predefined intervals and analyzed using a paper chromatographic technique ([Rathmann et al., 2019]). Chromatographic separation was carried out using a Shimadzu system ([Shimadzu Corporation]) (Genzo Shimadzu Sr., Kyoto, Japan), comprising LC-9A pumps, a Rheodyne injector (Model 7125), and an ultraviolet spectrophotometer detector (SPD-6A, Shimadzu). The mobile phase consisted of acetonitrile and water (65:35) containing 0.1% trifluoroacetic acid, delivered at a flow rate of 1.0 mL/min. […] Separated fractions were collected for up to 12 min, and the radiochemical integrity was subsequently evaluated using a well-type NaI(Tl) ([Al Oraini, 2018]) detector linked to a single-channel analyzer.

[2] = In vivo biodistribution of [^99mTc]Tc-carvedilol in healthy Swiss albino mice; conditions: for [^99mTc]Tc-carvedilol percentages of injected dose per Gram organ: i.v. tail vein
Text: For biodistribution and receptor occupancy studies, 24 healthy adult Swiss albino mice (12 males and 12 females, aged 10–12 weeks, weighing 25–30 g) were obtained from the Egyptian National Research Center. Mice outside the 25–30 g weight range were excluded to ensure consistency in the biodistribution outcomes. Prior to the study, animals were housed in groups of four with ad libitum access to food and water and underwent a 2-week acclimatization period. After this adaptation phase, the mice were randomly assigned to the study groups using the lot-drawing method.
Given ^99mTc’s physical half-life of approximately 6 h, shorter imaging and sampling intervals are generally preferred to maximize radioactive signal fidelity and minimize decay-related variability. At 24 h post-injection, the residual ^99mTc activity could fall below quantifiable thresholds, potentially compromising the precision of biodistribution data. To prevent this, all data collection was restricted to early post-injection intervals—specifically […]—when radioactivity levels remain within optimal detection ranges for gamma counting. By omitting the 24 h time point altogether, the study design ensured that the radiotracer signal would be robust enough to yield statistically reliable biodistribution profiles without being confounded by the isotope’s exponential decay. Additionally, prior pilot studies were conducted to empirically determine the time window during which the radiochemical integrity and quantification signal-to-noise ratio remained analytically valid. These informed the exclusion of late-phase sampling and reinforced confidence in the reliability of kinetic data collected within the defined 6 h observation window. Therefore, six mice were euthanized at each selected time point via standardized cervical dislocation performed by trained personnel in accordance with institutional animal care guidelines. The procedure followed the AVMA Guidelines for the Euthanasia of Animals ([Kirkwood, 2013]), ensuring it was rapid, humane, and reproducible. To ensure procedural consistency, all cervical dislocations were performed by the same experienced researcher, following pre-established protocols that involved correct animal positioning, anatomical landmark identification, and verification of death through cessation of heartbeat and respiration. Immediately postmortem, body weight was recorded, and blood was collected via cardiac puncture.
Organ harvesting included the collection of the heart, liver, lungs, kidneys, spleen, stomach, intestines, muscle (right leg), bone, and brain. Following dissection, tissues were gently rinsed with isotonic saline to remove residual blood, promptly weighed, kept at low temperatures, and immediately subjected to gamma counting to preserve radiochemical integrity and avoid post-collection decay artifacts. No storage or freezing was used to prevent degradation or leakage of [^99mTc]Tc-carvedilol. Sample processing occurred in a shielded, on-site laboratory adjacent to the dissection area, ensuring minimal delay—typically less than 2 to 3 minutes—between collection and measurement.
To ensure methodological rigor and reproducibility, both experimental and computational components of the study were supported by a structured statistical framework. A total of 24 healthy albino mice (12 males, 12 females), aged 10–12 weeks and weighing 25 ± 3 g, were selected based on uniform health status, age, and weight to minimize inter-animal variability. Animals were maintained under controlled laboratory conditions (12-h light/dark cycle, standardized humidity, and temperature) with unrestricted access to food and water. For biodistribution analysis, animals were randomly assigned to four experimental groups, each consisting of six mice, each representing a distinct post-injection time point (15, 30, 60, and 120 min). […]

COc1ccccc1OCC[N]1CC(COc2cccc3[nH]c4ccccc4c23)[O][99Tc]12(=[O])[O]C(COc1cccc3[nH]c4ccccc4c13)C[N]2CCOc1ccccc1OC (racemic) [[^99mTc]Tc-carvedilol]
serum stability [1]: > 92%
Residual [^99mTc]Tc-carvedilol percentages of injected dose per Gram in non-targeted organs ([2]; Blood row, 30 min post-injection): 96.021 ± 0.01 % ID/g
Residual [^99mTc]Tc-carvedilol percentages of injected dose per Gram in non-targeted organs ([2]; Blood row, 60 min post-injection): 92.710 ± 0.01 % ID/g
Residual [^99mTc]Tc-carvedilol percentages of injected dose per Gram in non-targeted organs ([2]; Blood row, 120 min post-injection): 94.008 ± 0.02 % ID/g
[^99mTc]Tc-carvedilol percentages of injected dose per Gram organ ([2]; Blood, 15 min post-injection): 19.895 ± 0.020 ^a % ID/g organ
[^99mTc]Tc-carvedilol percentages of injected dose per Gram organ ([2]; Blood, 30 min post-injection): 3.969 ± 0.052 % ID/g organ
[^99mTc]Tc-carvedilol percentages of injected dose per Gram organ ([2]; Blood, 60 min post-injection): 7.290 ± 0.052 % ID/g organ
[^99mTc]Tc-carvedilol percentages of injected dose per Gram organ ([2]; Blood, 120 min post-injection): 5.972 ± 0.131 % ID/g organ
[^99mTc]Tc-carvedilol percentages of injected dose per Gram organ ([2]; Bone, 15 min post-injection): 0.322 ± 0.035 % ID/g organ
[^99mTc]Tc-carvedilol percentages of injected dose per Gram organ ([2]; Bone, 30 min post-injection): 0.963 ± 0.215 % ID/g organ
[^99mTc]Tc-carvedilol percentages of injected dose per Gram organ ([2]; Bone, 60 min post-injection): 0.675 ± 0.215 % ID/g organ
[^99mTc]Tc-carvedilol percentages of injected dose per Gram organ ([2]; Bone, 120 min post-injection): 2.703 ± 0.019 % ID/g organ
Residual [^99mTc]Tc-carvedilol percentages of injected dose per Gram in non-targeted organs ([2]; Brain row, 15 min post-injection): 99.359 ± 0.01 % ID/g
Residual [^99mTc]Tc-carvedilol percentages of injected dose per Gram in non-targeted organs ([2]; Brain row, 30 min post-injection): 98.409 ± 0.03 % ID/g
Residual [^99mTc]Tc-carvedilol percentages of injected dose per Gram in non-targeted organs ([2]; Brain row, 60 min post-injection): 97.103 ± 0.01 % ID/g
Residual [^99mTc]Tc-carvedilol percentages of injected dose per Gram in non-targeted organs ([2]; Brain row, 120 min post-injection): 99.679 ± 0.02 % ID/g
[^99mTc]Tc-carvedilol percentages of injected dose per Gram organ ([2]; Brain, 15 min post-injection): 0.631 ± 0.020 % ID/g organ
[^99mTc]Tc-carvedilol percentages of injected dose per Gram organ ([2]; Brain, 30 min post-injection): 1.561 ± 0.008 % ID/g organ
[^99mTc]Tc-carvedilol percentages of injected dose per Gram organ ([2]; Brain, 60 min post-injection): 2.895 ± 0.391 % ID/g organ
[^99mTc]Tc-carvedilol percentages of injected dose per Gram organ ([2]; Brain, 120 min post-injection): 0.301 ± 0.110 % ID/g organ
Residual [^99mTc]Tc-carvedilol percentages of injected dose per Gram in non-targeted organs ([2]; Heart row, 15 min post-injection): 72.467 ± 0.02 ^a % ID/g
Residual [^99mTc]Tc-carvedilol percentages of injected dose per Gram in non-targeted organs ([2]; Heart row, 30 min post-injection): 92.707 ± 0.02 % ID/g
Residual [^99mTc]Tc-carvedilol percentages of injected dose per Gram in non-targeted organs ([2]; Heart row, 60 min post-injection): 97.838 ± 0.03 % ID/g
Residual [^99mTc]Tc-carvedilol percentages of injected dose per Gram in non-targeted organs ([2]; Heart row, 120 min post-injection): 96.414 ± 0.07 % ID/g
[^99mTc]Tc-carvedilol percentages of injected dose per Gram organ ([2]; Heart, 15 min post-injection): 27.533 % ID/g organ and 27.533 ± 0.931 % ID/g organ and 27.533 ± 0.931 ^a % ID/g organ
[^99mTc]Tc-carvedilol percentages of injected dose per Gram organ ([2]; Heart, 30 min post-injection): 7.273 ± 0.006 % ID/g organ
[^99mTc]Tc-carvedilol percentages of injected dose per Gram organ ([2]; Heart, 60 min post-injection): 2.161 ± 0.006 % ID/g organ
[^99mTc]Tc-carvedilol percentages of injected dose per Gram organ ([2]; Heart, 120 min post-injection): 3.516 ± 0.110 % ID/g organ
Residual [^99mTc]Tc-carvedilol percentages of injected dose per Gram in non-targeted organs ([2]; Intestines row, 15 min post-injection): 95.435 ± 0.09 % ID/g
Residual [^99mTc]Tc-carvedilol percentages of injected dose per Gram in non-targeted organs ([2]; Intestines row, 30 min post-injection): 96.612 ± 0.03 % ID/g
Residual [^99mTc]Tc-carvedilol percentages of injected dose per Gram in non-targeted organs ([2]; Intestines row, 60 min post-injection): 92.604 ± 0.04 % ID/g
Residual [^99mTc]Tc-carvedilol percentages of injected dose per Gram in non-targeted organs ([2]; Intestines row, 120 min post-injection): 94.643 ± 0.01 % ID/g
[^99mTc]Tc-carvedilol percentages of injected dose per Gram organ ([2]; Intestines, 15 min post-injection): 4.507 ± 0.521 % ID/g organ
[^99mTc]Tc-carvedilol percentages of injected dose per Gram organ ([2]; Intestines, 30 min post-injection): 3.358 ± 0.792 % ID/g organ
[^99mTc]Tc-carvedilol percentages of injected dose per Gram organ ([2]; Intestines, 60 min post-injection): 7.355 ± 0.792 % ID/g organ
[^99mTc]Tc-carvedilol percentages of injected dose per Gram organ ([2]; Intestines, 120 min post-injection): 5.347 ± 0.521 % ID/g organ
Residual [^99mTc]Tc-carvedilol percentages of injected dose per Gram in non-targeted organs ([2]; Kidneys row, 30 min post-injection): 67.207 ± 0.04 ^a % ID/g
Residual [^99mTc]Tc-carvedilol percentages of injected dose per Gram in non-targeted organs ([2]; Kidneys row, 60 min post-injection): 75.608 ± 0.01 % ID/g
Residual [^99mTc]Tc-carvedilol percentages of injected dose per Gram in non-targeted organs ([2]; Kidneys row, 120 min post-injection): 70.660 ± 0.05 % ID/g
[^99mTc]Tc-carvedilol percentages of injected dose per Gram organ ([2]; Kidneys, 15 min post-injection): 2.764 ± 0.012 % ID/g organ

— publication PMC12280724 (Frontiers in Pharmacology, 2025)
